Assay results taken from the CheMixHub viscosity set.
Values joined by “and” are separate entries in the source; they are usually repeats but may differ in a detail not shown here. Equal values may be shown once. ± gives the uncertainty stated by the source.

Assays:
[1] = xn = mol fraction of the nth substance listed
[2] = 298.15 K; 101 kPa

CCCCC(=O)O + c1ccccc1
[1], 298.15 K, 101 kPa
Settings	viscosity [mPa·s]
x1 = 0.04	0.62 ± 0.016
x1 = 0.078	0.639 ± 0.017
x1 = 0.12	0.662 ± 0.017
x1 = 0.16	0.687 ± 0.018
x1 = 0.34	0.825 ± 0.022
x1 = 0.43	0.92 ± 0.024
x1 = 0.53	1.062 ± 0.028
x1 = 0.75	1.436 ± 0.038

OC[C@H]1O[C@@](CO)(O[C@H]2O[C@H](CO)[C@@H](O)[C@H](O)[C@H]2O)[C@@H](O)[C@@H]1O + O
[1]
Settings	viscosity
293.15 K, 101 kPa, x1 = 0.00581	1.26 ± 0.15 mPa·s and 1.27 ± 0.16 mPa·s
293.15 K, 101 kPa, x1 = 0.013	1.96 ± 0.24 mPa·s
293.15 K, 101 kPa, x1 = 0.0221	3.21 ± 0.39 mPa·s
293.15 K, 101 kPa, x1 = 0.0339	6.2 ± 0.75 mPa·s
293.15 K, 101 kPa, x1 = 0.05	15.04 ± 1.8 mPa·s and 15.1 ± 1.9 mPa·s
293.15 K, 101 kPa, x1 = 0.0732	56.76 ± 6.8 mPa·s and 76.48 ± 9.2 mPa·s
293.16 K, 101.3 kPa, x1 = 0.013	1.96 ± 0.057 mPa·s
293.16 K, 101.3 kPa, x1 = 0.073	56.5 ± 1.6 mPa·s
298.15 K, 100 kPa, x1 = 0.0009	1.035 ± 0.0084 mPa·s
298.15 K, 100 kPa, x1 = 0.001818	0.98 ± 0.02 mPa·s
298.15 K, 100 kPa, x1 = 0.004482	1.104 ± 0.023 mPa·s
298.15 K, 100 kPa, x1 = 0.007149	1.222 ± 0.026 mPa·s
298.15 K, 100 kPa, x1 = 0.008888	1.295 ± 0.027 mPa·s
298.15 K, 101 kPa, x1 = 0.003	1.03 ± 0.011 mPa·s
298.15 K, 101 kPa, x1 = 0.0058	1.194 ± 0.012 mPa·s
298.15 K, 101 kPa, x1 = 0.00581	1.13 ± 0.14 mPa·s
298.15 K, 101 kPa, x1 = 0.013	1.715 ± 0.018 mPa·s and 1.7 ± 0.2 mPa·s
298.15 K, 101 kPa, x1 = 0.017	2.15 ± 0.023 mPa·s
298.15 K, 101 kPa, x1 = 0.0221	2.65 ± 0.32 mPa·s
298.15 K, 101 kPa, x1 = 0.0339	5.17 ± 0.62 mPa·s
298.15 K, 101 kPa, x1 = 0.05	11.49 ± 1.4 mPa·s and 11.8 ± 1.5 mPa·s
298.15 K, 101 kPa, x1 = 0.0732	43.88 ± 5.3 mPa·s and 47.98 ± 5.8 mPa·s
303.15 K, 100 kPa, x1 = 0.0009	0.944 ± 0.0081 mPa·s
303.16 K, 101.3 kPa, x1 = 0.013	1.504 ± 0.042 mPa·s
303.16 K, 101.3 kPa, x1 = 0.073	33.78 ± 0.92 mPa·s
308.15 K, 100 kPa, x1 = 0.0009	0.8578 ± 0.0078 mPa·s
308.15 K, 100 kPa, x1 = 0.001818	0.789 ± 0.017 mPa·s
308.15 K, 100 kPa, x1 = 0.002681	0.822 ± 0.018 mPa·s
308.15 K, 100 kPa, x1 = 0.003594	0.855 ± 0.018 mPa·s
308.15 K, 100 kPa, x1 = 0.004482	0.886 ± 0.019 mPa·s
308.15 K, 100 kPa, x1 = 0.00626	0.949 ± 0.02 mPa·s
308.15 K, 100 kPa, x1 = 0.007149	0.978 ± 0.021 mPa·s
308.15 K, 100 kPa, x1 = 0.008888	1.035 ± 0.022 mPa·s
308.15 K, 101 kPa, x1 = 0.001814	0.712 ± 0.015 mPa·s
308.15 K, 101 kPa, x1 = 0.003	0.822 ± 0.009 mPa·s
308.15 K, 101 kPa, x1 = 0.003622	0.777 ± 0.016 mPa·s
308.15 K, 101 kPa, x1 = 0.0058	0.949 ± 0.01 mPa·s
308.15 K, 101 kPa, x1 = 0.00581	0.89 ± 0.11 mPa·s and 0.92 ± 0.11 mPa·s
308.15 K, 101 kPa, x1 = 0.007213	0.915 ± 0.02 mPa·s
308.15 K, 101 kPa, x1 = 0.0092	1.117 ± 0.012 mPa·s
308.15 K, 101 kPa, x1 = 0.013	1.337 ± 0.014 mPa·s and 1.35 ± 0.16 mPa·s
308.15 K, 101 kPa, x1 = 0.01428	1.291 ± 0.029 mPa·s
308.15 K, 101 kPa, x1 = 0.017	1.654 ± 0.018 mPa·s
308.15 K, 101 kPa, x1 = 0.01781	1.535 ± 0.035 mPa·s
308.15 K, 101 kPa, x1 = 0.0224	2.075 ± 0.017 mPa·s
308.15 K, 101 kPa, x1 = 0.0279	2.588 ± 0.06 mPa·s
308.15 K, 101 kPa, x1 = 0.0339	3.8 ± 0.46 mPa·s
308.15 K, 101 kPa, x1 = 0.0354	3.655 ± 0.089 mPa·s
308.15 K, 101 kPa, x1 = 0.05	8.69 ± 1.1 mPa·s
308.15 K, 101 kPa, x1 = 0.05167	6.396 ± 0.16 mPa·s
308.15 K, 101 kPa, x1 = 0.0732	26.67 ± 3.2 mPa·s and 27.9 ± 3.4 mPa·s
313.15 K, 100 kPa, x1 = 0.0009	0.7866 ± 0.0076 mPa·s
313.15 K, 101 kPa, x1 = 0.00581	0.82 ± 0.1 mPa·s
313.15 K, 101 kPa, x1 = 0.013	1.2 ± 0.14 mPa·s
313.15 K, 101 kPa, x1 = 0.0339	3.25 ± 0.39 mPa·s
313.15 K, 101 kPa, x1 = 0.05	6.35 ± 0.77 mPa·s and 6.35 ± 0.79 mPa·s
313.15 K, 101 kPa, x1 = 0.0732	21.32 ± 2.6 mPa·s and 25.87 ± 3.1 mPa·s
313.16 K, 101.3 kPa, x1 = 0.013	1.193 ± 0.032 mPa·s
313.16 K, 101.3 kPa, x1 = 0.073	21.28 ± 0.57 mPa·s
318.15 K, 100 kPa, x1 = 0.001818	0.657 ± 0.014 mPa·s
318.15 K, 100 kPa, x1 = 0.002681	0.683 ± 0.015 mPa·s
318.15 K, 100 kPa, x1 = 0.003594	0.709 ± 0.015 mPa·s
318.15 K, 100 kPa, x1 = 0.004482	0.733 ± 0.016 mPa·s
318.15 K, 100 kPa, x1 = 0.00626	0.783 ± 0.017 mPa·s
318.15 K, 100 kPa, x1 = 0.007149	0.805 ± 0.017 mPa·s
318.15 K, 100 kPa, x1 = 0.008888	0.86 ± 0.02 mPa·s
318.15 K, 101 kPa, x1 = 0.00581	0.74 ± 0.09 mPa·s
318.15 K, 101 kPa, x1 = 0.00722	0.771 ± 0.016 mPa·s
318.15 K, 101 kPa, x1 = 0.01077	0.9 ± 0.02 mPa·s
318.15 K, 101 kPa, x1 = 0.013	1.06 ± 0.13 mPa·s
318.15 K, 101 kPa, x1 = 0.01432	0.984 ± 0.022 mPa·s
318.15 K, 101 kPa, x1 = 0.01785	1.164 ± 0.026 mPa·s
318.15 K, 101 kPa, x1 = 0.02128	1.431 ± 0.032 mPa·s
318.15 K, 101 kPa, x1 = 0.0221	1.51 ± 0.18 mPa·s
318.15 K, 101 kPa, x1 = 0.0339	2.84 ± 0.34 mPa·s
318.15 K, 101 kPa, x1 = 0.03502	2.618 ± 0.064 mPa·s
318.15 K, 101 kPa, x1 = 0.05	5.04 ± 0.61 mPa·s and 5.1 ± 0.63 mPa·s
318.15 K, 101 kPa, x1 = 0.0732	17.2 ± 2.1 mPa·s and 17.98 ± 2.2 mPa·s
323.15 K, 101 kPa, x1 = 0.00581	0.66 ± 0.08 mPa·s
323.15 K, 101 kPa, x1 = 0.013	0.98 ± 0.12 mPa·s
323.15 K, 101 kPa, x1 = 0.0221	1.36 ± 0.16 mPa·s
323.15 K, 101 kPa, x1 = 0.0339	2.52 ± 0.3 mPa·s
323.15 K, 101 kPa, x1 = 0.05	4.78 ± 0.58 mPa·s and 4.82 ± 0.59 mPa·s
323.15 K, 101 kPa, x1 = 0.0732	14.07 ± 1.7 mPa·s and 16.78 ± 2 mPa·s

CCOC(=O)Cn1cc[n+](C)c1.[Cl-]
Settings	viscosity [mPa·s]
[2]	348.6 ± 16

CCOC(=O)C(Cl)(Cl)Cl + O=C(O)C(Cl)(Cl)Cl
[1], 323.15 K, 101 kPa
Settings	viscosity [mPa·s]
x1 = 0.2358	3.172 ± 0.043
x1 = 0.4086	2.346 ± 0.031
x1 = 0.5988	1.742 ± 0.023
x1 = 0.7928	1.334 ± 0.017

Cc1cccc(N)c1 + CCCCCC
viscosity [mPa·s], [1], 101.33 kPa
Settings	x1 = 0.236	x1 = 0.396	x1 = 0.579	x1 = 0.787
295.15 K	0.46 ± 0.01	0.69 ± 0.013	0.95 ± 0.015	1.54 ± 0.019
305.15 K	0.39 ± 0.009	0.55 ± 0.01	0.77 ± 0.012	1.25 ± 0.016
